From patent publication US20240083857A1, “2-Methyl-Quinazolines” (Bayer Pharma Aktiengesellschaft, priority 2017, published 2024)

Key:
[1] = target: K-Ras^G12C : hSOS1 interaction (Homo sapiens, UniProt Q07889); assay: Biochemical assay 1: K-Ras^G12C interaction assay with hSOS1 (HTRF); format: binding; conditions: for IC50: read-out: Assay 1 (KRAS-SOS Interaction) activity expressed as IC50; for inhibition at 20 µM: read-out: Assay 1 (KRAS-SOS Interaction) activity expressed as % inhibition at 20 μM
Description: Biochemical assay 1: K-Ras^G12C Interaction Assay with hSOS1
This assay quantifies the equilibrium interaction of human SOS1 with K-Ras^Gl2C. Detection of the interaction is achieved by measuring homogenous time-resolved fluorescence resonance energy transfer (HTRF) from antiGST-Europium (FRET donor) bound to GST-K-Ras^G12C to anti-6His-XL665 bound to His-tagged hSOS1 (FRET-acceptor).
The assay buffer contained 5 mM HEPES pH 7.4 (Applichem), 150 mM NaCl (Sigma), 10 mM EDTA (Promega), 1 mM DTT (Thermofisher), 0.05% BSA Fraction V, pH 7.0, (ICN Biomedicals), 0.0025% (v/v) Igepal (Sigma) and 100 mM KF (FLUKA).
Concentrations of protein batches used were optimized to be within the linear range of the HTRF signal. A Ras working solution was prepared in assay buffer containing typically 10 nM GST-hK-RasG12C and 2 nM antiGST-Eu(K) (Cisbio, France). A SOS working solution was prepared in assay buffer containing typically 20 nM His-hSOS1 and 10 nM anti-6His-XL665 (Cisbio, France). An inhibitor control solution was prepared in assay buffer containing 10 nM anti-6His-XL665 without hSOS1.
Fifty nl of a 100-fold concentrated solution of the test compound in DMSO were transferred into a black microtiter test plate (384 or 1536, Greiner Bio-One, Germany). For this, either a Hummingbird liquid handler (Digilab, MA, USA) or an Echo acoustic system (Labcyte, CA, USA) was used.
All steps of the assay were performed at 20° C. A volume of 2.5 μl of the Ras working solution was added to all wells of the test plate using a Multidrop dispenser (Thermo Labsystems). After 2 min preincubation, 2.5 μl of the SOS working solution were added to all wells except for those wells at the side of the test plate that were subsequently filled with 2.5 μl of the inhibitor control solution. After 60 min incubation the fluorescence was measured with a Pherastar (BMG, Germany) using the HTRF module (excitation 337 nm, emission 1: 620 nm, emission 2: 665 nm).
IC50 values were calculated by 4-Parameter fitting using a commercial software package (Genedata Screener, Switzerland).

[2] = target: human SOS1 (nucleotide exchange of K-Ras^G12C) (Homo sapiens, UniProt Q07889); assay: Biochemical assay 2: K-Ras^G12C activation assay by hSOS1 at high GTP concentration (HTRF); conditions: high GTP; for IC50: read-out: Assay 2 (KRAS-Activation by SOS high GTP) activity expressed as IC50; for inhibition at 20 µM: read-out: Assay 2 (KRAS-Activation by SOS high GTP) activity expressed as % inhibition at 20 μM
[3] = target: human SOS1 (loading of human K-Ras^G12C-GDP with fluorescent GTP-analog) (Homo sapiens, UniProt Q07889); assay: Biochemical assay 3: K-Ras^G12C activation assay by hSOS1 (HTRF); conditions: no GTP; for IC50: read-out: Assay 3 (KRAS-Activation by SOS no GTP) activity expressed as IC50; for inhibition at 20 µM: read-out: Assay 3 (KRAS-Activation by SOS no GTP) activity expressed as % inhibition at 20 μM

Compound | IC50 [1] [µM] | IC50 [2] [µM] | IC50 [3] [µM] | inhibition at 20 µM [1] [%] | inhibition at 20 µM [2] [%] | inhibition at 20 µM [3] [%]
CCOCc1ccccc1-c1ccc([C@H](C)Nc2nc(C)nc3cc(OC)c(OC)cc23)s1 (racemic) [Example 133, N-[1-{5-[2-(ethoxymethyl)phenyl]thiophen-2-yl}ethyl]-6,7-dimethoxy-2-methylquinazolin-4-amine] | 4.3 | 4.03 | 5.67 | – | – | –
COc1cc2nc(C)nc(N[C@@H](C)c3ccc(-c4ccc(C(=O)NCCN(C)C)cc4)s3)c2cc1OC (racemic) [Example 142, 4-(5-{1-[(6,7-dimethoxy-2-methylquinazolin-4-yl)amino]ethyl}thiophen-2-yl)-N-[2-(dimethylamino)ethyl]benzamide] | 1.01 | 1.81 | 1.02 | – | – | –
C/C=C(\C)c1ccc([C@H](C)Nc2nc(C)nc3cc(OC)c(OC)cc23)s1 (racemic) [Example 143, N-[1-{5-[(2E)-but-2-en-2-yl]thiophen-2-yl}ethyl]-6,7-dimethoxy-2-methylquinazolin-4-amine] | 7.64 | 8.76 | 17.8 | – | – | –
COc1cc2nc(C)nc(N[C@@H](C)c3ccc(/C=C/Cc4ccccc4)s3)c2cc1OC (racemic) [Example 145, 6,7-dimethoxy-2-methyl-N-[1-{5-[(1E)-3-phenylprop-1-en-1-yl]thiophen-2-yl}ethyl]quinazolin-4-amine] | – | – | – | 40 | 18 | 11
COc1cc2nc(C)nc(N[C@@H](C)c3ccc(-c4cc(N)ccc4C)s3)c2cc1OC (racemic) [Example 146, N-{1-[5-(5-amino-2-methylphenyl)thiophen-2-yl]ethyl}-6,7-dimethoxy-2-methylquinazolin-4-amine] | 0.911 | 1.5 | 1.48 | – | – | –
COc1cc2nc(C)nc(N[C@@H](C)c3ccc(-c4c(C)noc4C)s3)c2cc1OC (racemic) [Example 147, N-{1-[5-(3,5-dimethyl-1,2-oxazol-4-yl)thiophen-2-yl]ethyl}-6,7-dimethoxy-2-methylquinazolin-4-amine] | 0.397 | 0.767 | 0.658 | – | – | –
COc1cc2nc(C)nc(N[C@@H](C)c3ccc(-c4ccccc4S(C)(=O)=O)s3)c2cc1OC (racemic) [Example 148, 6,7-dimethoxy-2-methyl-N-[1-{5-[2-(methylsulfonyl)phenyl]thiophen-2-yl}ethyl]quinazolin-4-amine] | 1.41 | 3.4 | 3.06 | – | – | –
COc1cc2nc(C)nc(N[C@@H](C)c3ccc(-c4ccccc4OC(F)(F)F)s3)c2cc1OC (racemic) [Example 150, 6,7-dimethoxy-2-methyl-N-[1-{5-[2-(trifluoromethoxy)phenyl]thiophen-2-yl}ethyl]quinazolin-4-amine] | 7.36 | 13.2 | 13.2 | – | – | –
COc1cc2nc(C)nc(N[C@@H](C)c3ccc(-c4ccc5[nH]ccc5c4)s3)c2cc1OC (racemic) [Example 152, N-{1-[5-(1H-indol-5-yl)thiophen-2-yl]ethyl}-6,7-dimethoxy-2-methylquinazolin-4-amine] | 5.48 | 7.33 | 11.1 | – | – | –
COc1cc2nc(C)nc(N[C@@H](C)c3ccc(-c4ccoc4)s3)c2cc1OC (racemic) [Example 153, N-{1-[5-(furan-3-yl)thiophen-2-yl]ethyl}-6,7-dimethoxy-2-methylquinazolin-4-amine] | 2.35 | 2.73 | 4.1 | – | – | –
COc1cc2nc(C)nc(N[C@@H](C)c3ccc(-c4csc5ccccc45)s3)c2cc1OC (racemic) [Example 154, N-{1-[5-(1-benzothiophen-3-yl)thiophen-2-yl]ethyl}-6,7-dimethoxy-2-methylquinazolin-4-amine] | 7.82 | 8.78 | 12.9 | – | – | –
COc1cc2nc(C)nc(N[C@@H](C)c3ccc(-c4cc5ccccc5n4C)s3)c2cc1OC (racemic) [Example 155, 6,7-dimethoxy-2-methyl-N-{1-[5-(1-methyl-1H-indol-2-yl)thiophen-2-yl]ethyl}quinazolin-4-amine] | 0.992 | 1.47 | 1.64 | – | – | –
CCC/C=C/c1ccc([C@H](C)Nc2nc(C)nc3cc(OC)c(OC)cc23)s1 (racemic) [Example 156, 6,7-dimethoxy-2-methyl-N-[1-{5-[(1E)-pent-1-en-1-yl]thiophen-2-yl}ethyl]quinazolin-4-amine] | 4.12 | 5.76 | 10.8 | – | – | –
COc1cc2nc(C)nc(N[C@@H](C)c3ccc(/C=C/C4CCCCC4)s3)c2cc1OC (racemic) [Example 157, N-[1-{5-[(E)-2-cyclohexylethenyl]thiophen-2-yl}ethyl]-6,7-dimethoxy-2-methylquinazolin-4-amine] | – | – | – | 44 | 19 | 12
COc1cc2nc(C)nc(N[C@@H](C)c3ccc(-c4cccc(/C=C/C#N)c4)s3)c2cc1OC (racemic) [Example 160, (2E)-3-[3-(5-{1-[(6,7-dimethoxy-2-methylquinazolin-4-yl)amino]ethyl}thiophen-2-yl)phenyl]prop-2-enenitrile] | 16.1 | – | – | – | 33 | 13
COc1cc2nc(C)nc(N[C@@H](C)c3ccc(-c4ccc(C)cc4C)s3)c2cc1OC (racemic) [Example 161, N-{1-[5-(2,4-dimethylphenyl)thiophen-2-yl]ethyl}-6,7-dimethoxy-2-methylquinazolin-4-amine] | 4.17 | 3.97 | 7 | – | – | –
COc1cc2nc(C)nc(N[C@@H](C)c3ccc(-c4ccc(C(C)=O)s4)s3)c2cc1OC (racemic) [Example 162, 1-(5′-{1-[(6,7-dimethoxy-2-methylquinazolin-4-yl)amino]ethyl}-2,2′-bithiophen-5-yl)ethanone] | 8.76 | 11.6 | 16 | – | – | –
COc1cc2nc(C)nc(N[C@@H](C)c3ccc(-c4ccccc4NC(C)=O)s3)c2cc1OC (racemic) [Example 166, N-[2-(5-{1-[(6,7-dimethoxy-2-methylquinazolin-4-yl)amino]ethyl}thiophen-2-yl)phenyl]acetamide] | 1.8 | 3.68 | 4.99 | – | – | –
COc1cc2nc(C)nc(N[C@@H](C)c3ccc(-c4ccccc4S(=O)(=O)N(C)C)s3)c2cc1OC (racemic) [Example 169, 2-(5-{1-[(6,7-dimethoxy-2-methylquinazolin-4-yl)amino]ethyl}thiophen-2-yl)-N,N-dimethylbenzenesulfonamide] | 2.16 | 3.7 | 4.53 | – | – | –
COc1cc2nc(C)nc(N[C@@H](C)c3ccc(-c4cccc5[nH]ccc45)s3)c2cc1OC (racemic) [Example 171, N-{1-[5-(1H-indol-4-yl)thiophen-2-yl]ethyl}-6,7-dimethoxy-2-methylquinazolin-4-amine] | 5.59 | 3.37 | 7.18 | – | – | –
COc1ncc(-c2ccc([C@H](C)Nc3nc(C)nc4cc(OC)c(OC)cc34)s2)cn1 (racemic) [Example 172, 6,7-dimethoxy-N-{1-[5-(2-methoxypyrimidin-5-yl)thiophen-2-yl]ethyl}-2-methylquinazolin-4-amine] | 4.07 | 7.33 | 9.19 | – | – | –
COc1cc2nc(C)nc(N[C@@H](C)c3ccc(-c4ccc5c(c4)CCO5)s3)c2cc1OC (racemic) [Example 174, N-{1-[5-(2,3-dihydro-1-benzofuran-5-yl)thiophen-2-yl]ethyl}-6,7-dimethoxy-2-methylquinazolin-4-amine] | 6.92 | 9.28 | 18.3 | – | – | –
COc1cc2nc(C)nc(N[C@@H](C)c3ccc(/C=C/c4ccccc4)s3)c2cc1OC (racemic) [Example 175, 6,7-dimethoxy-2-methyl-N-[1-{5-[(E)-2-phenylethenyl]thiophen-2-yl}ethyl]quinazolin-4-amine] | 17.6 | – | – | – | 50 | 44
